The values that follow come from patent US6451819B2, “Heterocyclic compounds useful as NMDA receptor selective subtype blockers” (Hoffmann-La Roche Inc., priority 2000, dated 2002).

Usually melting point stands for the temperature, or range, at which the solid turns liquid. The term IC50 denotes the concentration needed to halve the response being measured.

Test system in the first data set: not given
Test: not given
Settings: not given
`Cl.O=S(=O)(c1ccc(O)cc1)C1CCN(CCCCc2ccccc2)C1` (racemic) had a melting point of 121 to 124 °C.

The target in a further data set is T1, NMDA receptor (3H-Ro 25-6981 binding site), rat brain membranes (Rattus norvegicus, UniProt P35439+Q00960).
T1 construct: Membranes were prepared by homogenization of the whole brain minus cerebellum and medulla oblongata; from tissue; host or cells: rat whole brain minus cerebellum and medulla oblongata, membrane preparation
T1 sequence (Q00960 27-1482, other chains not shown): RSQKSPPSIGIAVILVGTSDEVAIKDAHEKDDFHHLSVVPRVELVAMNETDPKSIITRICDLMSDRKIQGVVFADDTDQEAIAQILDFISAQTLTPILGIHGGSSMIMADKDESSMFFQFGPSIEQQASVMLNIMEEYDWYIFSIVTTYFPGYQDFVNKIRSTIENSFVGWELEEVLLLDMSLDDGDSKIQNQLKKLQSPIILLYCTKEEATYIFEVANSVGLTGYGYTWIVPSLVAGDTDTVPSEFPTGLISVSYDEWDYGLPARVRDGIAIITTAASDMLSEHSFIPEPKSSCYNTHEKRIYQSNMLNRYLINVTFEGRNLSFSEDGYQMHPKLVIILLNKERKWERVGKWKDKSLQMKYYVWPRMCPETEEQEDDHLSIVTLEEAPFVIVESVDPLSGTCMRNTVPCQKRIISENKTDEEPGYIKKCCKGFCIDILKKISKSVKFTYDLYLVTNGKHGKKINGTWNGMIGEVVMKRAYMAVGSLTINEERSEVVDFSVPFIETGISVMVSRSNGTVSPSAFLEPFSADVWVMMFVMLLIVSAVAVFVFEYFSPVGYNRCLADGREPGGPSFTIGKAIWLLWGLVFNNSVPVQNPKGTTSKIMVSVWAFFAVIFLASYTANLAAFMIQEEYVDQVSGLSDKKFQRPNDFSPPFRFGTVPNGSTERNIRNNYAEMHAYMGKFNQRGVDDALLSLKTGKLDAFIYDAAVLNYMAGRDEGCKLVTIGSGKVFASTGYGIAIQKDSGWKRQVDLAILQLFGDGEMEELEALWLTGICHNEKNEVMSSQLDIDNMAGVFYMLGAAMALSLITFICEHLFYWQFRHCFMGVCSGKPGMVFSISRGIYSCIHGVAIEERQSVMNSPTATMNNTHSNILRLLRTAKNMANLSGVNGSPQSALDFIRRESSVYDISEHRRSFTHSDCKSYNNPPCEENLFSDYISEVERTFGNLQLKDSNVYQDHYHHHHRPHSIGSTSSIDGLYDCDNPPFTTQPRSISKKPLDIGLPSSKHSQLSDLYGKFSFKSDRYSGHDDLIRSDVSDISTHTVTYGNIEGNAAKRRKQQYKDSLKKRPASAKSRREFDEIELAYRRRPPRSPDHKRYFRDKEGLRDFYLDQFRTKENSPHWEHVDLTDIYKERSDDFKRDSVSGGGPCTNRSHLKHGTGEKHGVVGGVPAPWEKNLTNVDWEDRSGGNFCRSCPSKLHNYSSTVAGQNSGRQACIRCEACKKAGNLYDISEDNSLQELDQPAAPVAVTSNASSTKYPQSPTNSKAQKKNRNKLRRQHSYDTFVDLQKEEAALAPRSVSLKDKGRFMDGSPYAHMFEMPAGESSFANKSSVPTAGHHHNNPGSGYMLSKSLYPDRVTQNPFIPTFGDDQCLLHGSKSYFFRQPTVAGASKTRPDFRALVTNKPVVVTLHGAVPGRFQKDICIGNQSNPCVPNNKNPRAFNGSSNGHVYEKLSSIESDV
Put plainly: 3H-Ro 25-6981 binding.
Settings: not given
The method, then: 3H-Ro 25-6981 binding (Ro 25-6981 is [R—(R*,S*)]-a-(4-hydroxy-phenyl)-b-methyl-4-(phenyl-methyl)-1-piperidine propanol)
Male Füllinsdorf albino rats weighing between 150-200 g were used. Membranes were prepared by homogenization of the whole brain minus cerebellum and medulla oblongata with a Polytron (10,000 rpm, 30 seconds), in 25 volumes of a cold Tris-HCl 50 mM, EDTA 10 mM, pH 7.1 buffer. The homogenate was centrifuged at 48,000 g for 10 minutes at 4° C. The pellet was resuspended using the Polytron in the same volume of buffer and the homogenate was incubated at 37° C. for 10 minutes. After centrifugation the pellet was homogenized in the same buffer and frozen at −80° C. for at least 16 hours but not more than 10 days. For the binding assay the homogenate was thawed at 37° C., centrifuged and the pellet was washed three times as above in a Tris-HCl 5 mM, pH 7.4 cold buffer. The final pellet was resuspended in the same buffer and used at a final concentration of […].
3H-Ro 25-6981 binding experiments were performed using a Tris-HCl 50 mM, pH 7.4 buffer. For displacement experiments 5 nM of 3H-Ro 25-6981 were used and non-specific binding was measured using 10 mM of tetrahydroisoquinoline and usually it accounts for 10% of the total. The incubation time was 2 hours at 4° C. and the assay was stopped by filtration on Whatman GF/B glass fiber filters (Unifilter-96, Packard, Zürich, Switzerland). The filters were washed 5 times with cold buffer. The radioactivity on the filter was counted on a Packard Top-count microplate scintillation counter after addition of […] of microscint 40 (Canberra Packard S.A., Zürich, Switzerland).
The effects of compounds were measured using a minimum of 8 concentrations and repeated at least once. The pooled normalized values were analyzed using a non-linear regression calculation program which provide IC50 with their relative upper and lower 95% confidence limits (RS1, BBN, USA).
`O=S(=O)(c1ccc(O)cc1)[C@H]1CCN(CC(F)CCc2ccccc2)C1` (mixture of isomers) [Example 35, (2R,3S) and (2S,3S)-4-[1-(2-Fluoro-4-phenyl-butyl)-pyrrolidine-3-sulfonyl]-phenol] gave a half-inhibitory concentration (IC50) of 29 nM.
Still for that read-out and setting: the figure for `Oc1ccc(S[C@H]2CCN(CC(F)CCc3ccccc3)C2)cc1` (mixture of isomers) [Example 68, (2RS,3S)-4-[1-(2-Fluoro-4-phenyl-butyl)-pyrrolidin-3-ylsulfanyl]-phenol] is 77 nM.

Still in this data set, the particulars now being: displacement of 5 nM 3H-Ro 25-6981, rat whole brain minus cerebellum and medulla oblongata membranes, 2 hours at 4° C.; read-out: IC50.
Consider `O=S(=O)(c1ccc(O)cc1)[C@H]1CCN(CC(O)C2Cc3ccccc3C2)C1` (mixture of isomers) [Example 43, (2R,3S) and (2S,3S)-4-[1-(2-Hydroxy-2-indan-2-yl-ethyl)-pyrrolidine-3-sulfonyl]-phenol], for which the IC50 was 31 nM.
The same measure, in the same setting: the figure for `O=S(=O)(c1ccc(O)cc1)[C@@H]1CN(CCCCc2ccccc2)C[C@H]1O` (racemic) [Example 16, (3RS,4RS)-4-(4-Hydroxy-benzenesulfonyl)-1-(4-phenyl-butyl)-pyrrolidin-3-ol] is 80 nM; for `O=S(=O)(c1ccc(O)cc1)C1CCN([C@H]2CC[C@@H](c3ccccc3)CC2)C1` (relative stereo) [Example 6, (3RS,cis)-4-[1-(4-Phenyl-cyclohexyl)-pyrrolidine-3-sulfonyl]-phenol] it is 59 nM.
`Oc1ccc(S[C@H]2CCN(CCCCc3ccccc3)C2)cc1` [Example 2, (S)-4-[1-(4-Phenyl-butyl)-pyrrolidin-3-yl-sulfanyl]-phenol]: the IC50 stood at 9 nM.
The same measure, in the same setting: the figure for `Oc1ccc(S[C@@H]2CCN(CCCCc3ccccc3)C2)cc1` [Example 3, (R)-4-[1-(4-Phenyl-butyl)-pyrrolidin-3-yl-sulfanyl]-phenol] is 20 nM.
Take `O=S(=O)(c1ccc(O)cc1)C1CCN(C2CC(Cc3ccccc3)C2)C1` (stereo not drawn) [Example 4, (3RS,cis) and (3RS,trans)-4-[1-(3-Benzyl-cyclobutyl)-pyrrolidine-3-sulfonyl]-phenol]: the IC50 amounted to 40 nM.
On the same count and under the same terms, the figure for `[O-][S@@+](c1ccc(O)cc1)[C@H]1CCN(C[C@@H](F)CCc2ccccc2)C1` [Example 62, (2S,3S,S-oxide R)-4-[1-(2-Fluoro-4-phenyl-butyl)-pyrrolidine-3-sulfinyl]-phenol] is 60 nM.
